Results from patent EP0400785A2, “Ultraviolet curable phenyl and acrylamide group-containing silicone compositions” (DOW CORNING CORPORATION, priority 1989, dated 1990).

Tests used:
Format in all cases: physicochemical
[1] = Durometer hardness of cured composition (Shore scales); conditions: in Acrylamide-polymer B; 0.25 inch thick section of cured material
Text: (§1) Compositions were made from Acrylamide-polymer B and various compounds which might be considered useful as photosensitization systems. These included P-1 = 2 hydroxy-2-methylphenylpropan-1-one (Darocur^TM 1173) P-2 = diethoxyacetophenone P-3 = (1-hydroxycyclohexyl)phenylmethanone (Irgacure^TM 184) P-4 = benzophenone P-5 = a 50/50 weight mixture of P-1 and diisopropylaminoethanol. Each of the photosensitization systems were used in an amount of one weight percent except P-5 which was used in an amount of two weight percent. The weight percentage was based on the weight of Acrylamide-blend B. Each of the compositions were cured for a defined period of time by exposure to ultraviolet radiation on the LCU described in Example 2, set for 3 seconds per pass which measured about 400 mJ/cm² using a Light Bug. The hardness of the cured composition was measured by using equipment manufactured by Instrument MFG Co. on the Shore OO durometer scale using a 0.25 inch thick section of the cured material. The durometer was determined initially, after heat aging for 20 hours at 150°C. in an oven and after 20 hours in an autoclave at 12 1°C. and 15 psi pressure.
(§2) A gel composition was prepared by mixing 98 parts of Acrylamide-blend E, 1 part of (1-hydroxycyclohexyl)phenylmethanone and 1 part of a heat stability additive. Sodium and potassium contents were determined on uncured samples of the gel composition by using flame photometry of acid ashed gel composition after removal of silica by treatment with hydrofluoric acid. The amount of sodium and potassium were each less than 2 ppm. […] The irradiation dose was determined by using an IL 390 Light Bug manufactured by International Light of (Newburyport, Mass.). […] As determined by ASTM-D150, the dielectric constant at 100 Hz was 3.0 and at 100,000 Hz was 3.0. As determined by ASTM-D150, the dissipation factor at 100 Hz was 0.006 and at 100,000 Hz was 0.002. The glass transition temperature was -113°C. and there was no melting transition temperature as determined by differential scanning calorimetry. The thermal stability was determined by placing a sample of the cured gel composition in a forced air oven at 150°C. […] The autoclave stability was determined by placing a sample of cured gel composition in an autoclave at 121°C. with a pressure of 2.1 kg/cm².
(§3) A composition was prepared by blending 67 parts of Acrylamide-polymer D, 25 parts of 1,4 -butanediol diacrylate, 3 parts of 1-hydroxy-2-methyl-1-phenylpropan-1-one, 5 parts of an adhesion additive, 100 ppm of phenothiazine and 100 ppm of the monomethyl ether of hydroquinone. […] The ionic purity was determined and there was less than 2 ppm of sodium and less than 2 ppm potassium. […]

[2] = Autoclave stability of cured composition at 121°C (durometer); conditions: in Acrylamide-polymer B; after 20 hours in an autoclave at 12 1°C and 15 psi
Text: as §1, §2, §3

[3] = Heat aging / thermal stability of cured composition in oven at 150°C (durometer); conditions: in Acrylamide-polymer B; after 20 hours at 150°C in an oven
Text: as §1, §2, §3

Row | Structure (SMILES) | DUROMETER INITIAL [1] | DUROMETER AUTOCLAVE [2] | DUROMETER HEAT AGED [3]
1 | CC(C)(O)C(=O)c1ccccc1 [P-1, 2 hydroxy-2-methylphenylpropan-1-one] | 45 Shore OO | 39 Shore OO | 36 Shore OO
2 | CCOC(OCC)C(=O)c1ccccc1 [P-2, diethoxyacetophenone] | 42 Shore OO | 47 Shore OO | 30 Shore OO
3 | O=C(c1ccccc1)C1(O)CCCCC1 [P-3, (1-hydroxycyclohexyl)phenylmethanone] | 41 Shore OO | 40 Shore OO | 42 Shore OO
4 | O=C(c1ccccc1)c1ccccc1 [P-4, benzophenone] | 44 Shore OO | 44 Shore OO | 43 Shore OO
